# Test results from ChEMBL document CHEMBL5584328, “Integrating computational and experimental chemical biology revealed variable anticancer activities of phosphodiesterase isoenzyme 5 inhibitors (PDE5i) in lung cancer” (RSC Med Chem, 2024).
# pIC50: −log10 of the molar value.
# Experiments:
# Type in all cases: functional, cell-based
# A549 = experiment: Antiproliferative activity against human A549 cells measured after 48 hrs by MTT assay; details: A549, 48 h
# NCI-H661 = experiment: Antiproliferative activity against human NCI-H661 cells measured after 48 hrs by MTT assay; details: NCI-H661, 48 h
# NCI-H1299 = experiment: Antiproliferative activity against human NCI-H1299 cells measured after 48 hrs by MTT assay; details: NCI-H1299, 48 h
pIC50 (A549),pIC50 (NCI-H661),pIC50 (NCI-H1299),Structure (SMILES)
< 3.30,< 3.30,< 3.30,CCCc1nn(C)c2c(=O)[nH]c(-c3cc(S(=O)(=O)N4CCN(C)CC4)ccc3OCC)nc12 [SILDENAFIL]
4.34,4.35,4.35,O=C(c1ccc(OCCN2CCCCC2)cc1)c1c(-c2ccc(O)cc2)sc2cc(O)ccc12 [RALOXIFENE]
